Reference: patent US20090099123A1, “Antisense microRNA and uses therefor” (priority 2007, published 2009)

What was measured:
miR-27a [1] = settings: these and other cancer cells (refs 23, 42, 43); cited from earlier work
[2] = test system: prostate and pancreatic tumors and cells; settings: cited from earlier work
[3] = test system: RKO and SW480 colon cancer cells; assay: Cell proliferation assay in colon cancer cells; format: cell-based
Method: (§1) FIG. 8A: Decreased cell survival in RKO cells. […] Cell survival is expressed as the percentage of β-CDODA-Me-treated cells remaining compared to DMSO (set at 100%).
(§2) RKO and SW480 colon cancer cells (2×10^4 per well) were plated in 12-well plates and allowed to attach for 24 hr. The medium was then changed to DMEM/Ham's F-12 medium containing 2.5% charcoal-stripped FBS, and either vehicle (DMSO) or different concentrations of the compound were added. Fresh medium and compounds were added every 48 hr, and cells were then trypsinized and counted after 48 and 96 hr using a Coulter Z1 cell counter. Transfection experiments in RKO and SW480 cells used 0.4 μg of reporter gene constructs and 0.04 μg of β-Gal and LipofectAMINE 2000 reagent (Invitrogen). Results of cell proliferation and transfection studies are expressed as means±S.E. for at least three replicate determinations for each treatment group. Western blots were determined with whole cell lysates essentially.

RKO and SW480 cells [4] = assay: Induction of apoptosis / PARP cleavage in colon cancer cells (Western blot); format: cell-based
Method: as §1, §2

[5] = test system: Sp1, Sp3, Sp4, VEGF, VEGFR1 and survivin; assay: Sp and Sp-dependent mRNA and proteins in colon cancer cells (semi-quantitative RT-PCR, Western blot); format: cell-based
Source text: (§3) ID NO: 8), ZBTB10 (sense [NT] ID NO: 9); antisense [NT] ID NO: 10), VEGF (sense [NT] ID NO: 11); antisense [NT] ID NO: 12), VEGFR1 (sense [NT] ID NO: 13); antisense [NT] ID NO: 14), Survivin (sense [NT] ID NO: 15); antisense [NT] ID NO: 16) and GAPDH (sense [NT] ID NO: 17); antisense [NT] ID NO: 18).

Sp1 gene promoter = assay: Sp1 promoter construct luciferase activity in RKO cells; format: cell-based
Method: as §2

Sp3 gene promoter = assay: Sp3 promoter construct luciferase activity in RKO cells; format: cell-based
Method: as §2

miR-27a [6] = assay: miR-27a by quantitative real time PCR in colon cancer cells; format: cell-based; settings: RKO and SW480 cells, 18 hr
Method: (§4) cDNA was prepared from the RKO and SW480, cell lines using Reverse Transcription System (Promega). Each PCR was carried out in triplicate in a 20-μl volume using SYBR Green Mastermix (Applied Biosystems, Foster City, Calif.) for 15 min at 95° C. for initial denaturing, followed by 40 cycles of 95° C. for 30 s and 60° C. for 1 min in the Applied Biosystems 7900HT Fast Real-time PCR System. The ABI Dissociation Curves software was used following a brief thermal protocol (95° C. for 15 s and 60° C. for 15 s, followed by a slow ramp to 95° C.) to control for multiple species in each PCR amplification. Values for each gene were normalized to expression levels of TATA-binding protein. The primers used for real-time PCR were Myt-1 (sense 5′-CCTTCCAAGAGTAGCTCCAATTC-3′ (SEQ ID NO: 19); antisense 5′-GCC GGT AGC TCC CAT ATG G-3′) (SEQ ID NO: 20) and TATA-binding protein (sense 5′-TGC ACA GGA GCC AAG AGT GM-3′ (SEQ ID NO: 21); antisense 5′-CACATCACAGCTCCCCACCA-3′) (SEQ ID NO: 22). miRNA was extracted using the mirVana miRNA extraction kit (Applied Biosystems). Quantification of miRNA (RNU6B and miRNA-27a) was done using the Taqman miRNA kit (Applied Biosystems) according to the manufacturer's protocol with real-time PCR. U6 small nuclear RNA was used as a control to determine relative miRNA expression.

ZBTB10 = ZBTB10 by semi-quantitative RT-PCR in colon cancer cells; format: cell-based; settings: RKO or SW480 cells, 18 hr
Source text: as §3

RKO and SW480 cells [7] = assay: FACS cell cycle analysis in colon cancer cells; format: cell-based
Method: Effects of β-CDODA-Me. SW480 (FIG. 12A) and RKO (FIG. 12B) cells were treated for 24 hr with DMSO(O), 2.5 and 5.0 μM β-CDODA-Me, and analyzed by FACS analysis. FIG. 12C: iSp modulates Sp protein expression and the cell cycle in SW480 and RKO cells. Cells were transfected with iSp, a combination of small inhibitory RNAs for Sp1, Sp3 and Sp4 or a non-specific oligonucleotide (iLamin), and analyzed for Sp proteins by Western blots (to confirm Sp knockdown) and FACS analysis. FIG. 12D: as-miR-27a modulates the cell cycle. SW480 and RKO cells were transfected with different amounts of as-miR-27a and, after 48 hr, analyzed by FACS. All experiments in FIGS. 12A-12D were repeated three times, and results are expressed as means±SE. Significant (p<0.05) changes compared to untreated (0) or iLamin-treated cells are indicated by asterisks.
RKO and SW480 cells were treated with either the vehicle (DMSO) or the compound for 24 hr or with as-miR27a. Cells were trypsinized, centrifuged, and resuspended in staining solution containing 50 μg/mL propidium iodide, 4 mmol/L sodium citrate and 30 units/mL RNase. After incubation at room temperature for 1 hr, cells were analysed on a FACS Vantage SE DiVa made by Becton Dickinson (BD), using BD FACSDiva Software V4.1.1. Propidium iodide (PI) fluorescence was collected through a 610SP bandpass filter, and list mode data were acquired on a minimum of 50,000 single cells defined by a dot plot of PI width vs. PI area. Data analysis was performed in BD FACSDiva Software V4.1.1 using PI width vs. PI area to exclude cell aggregates.

Myt-1, Wee-1 and cdc2 = assay: Myt-1 and Wee-1 expression and cdc2 phosphorylation in colon cancer cells; format: cell-based
Method: (§5) FIGS. 13A-13D show the in vitro and in vivo effects of β-CDODA-Me on G2/M arrest and inhibition of tumor growth. Effects of β-CDODA-Me (FIG. 13A, 13B) and as-miR-27a (FIG. 13C) on Myt-1 and cdc2 phosphorylation. Colon cancer cells were treated with different amounts of β-CDODA-Me or as-miR-27a for the indicated times, and Myt-1 expression and cdc2 phosphorylation were determined by real time PCR or Western blots, respectively. […] FIGS. 13D-13F: β-CDODA-Me inhibit tumor growth (volume) (FIG. 13D), weight (FIG. 13E) and miR-27a expression (FIG. 13F) in a mouse xenograft model. Nude mice bearing RKO cells as xenografts were treated with corn oil (solvent control) or β-CDODA-Me (15 mg/kg/d), and tumor volumes, tumor weights, and miR-27a expression were determined.
as §4

RKO cells as xenografts = assay: Xenograft study in athymic nude mice; format: in vivo
Method: as §5
Mice were used in accordance with institutional guidelines when they were 8-12 wk old. To produce tumors, RKO cells were harvested from subconfluent cultures by a brief exposure to 0.25% trypsin and 0.02% EDTA and only suspensions consisting of single cells with >90% viability were used for the injections. A xenograft was established by s.c. injection of the cells (5×10^6) into the flanks of individual mice and, after 6 days, mice were randomized into two groups of 5 mice per group and dosed by oral gavage in corn oil or 15 mg/kg/d B-CDODA-Me 5 days a week for 22 days. The mice were weighed, and tumor size was measured every third day with calipers to permit calculation of tumor volumes: V=LW^2/2, where L and W were length and width, respectively. Final tumors weights were determined at the end of the dosing regimen. Tumor tissues and selected body organs (liver and kidney) were either stored in RNAlater solution (per manufacture's recommendations) for later microRNA analysis, snap frozen and stored at −80° C., or fixed in 10% formalin and embedded in paraffin.

[8] = 15 mg/kg/d oral gavage, 5 days a week for 22 days, vs corn oil

In the case of `Cc1c(Cl)cccc1Nc1ccccc1C(=O)O` [tolfenamic acid], the “levels of miR-27a RNA” value (miR-27a [1]) is listed as “decrease” and the “growth of prostate and pancreatic tumors and cells” value [2] is listed as “inhibit growth”.

In the case of `COC(=O)[C@@]1(C)CC[C@]2(C)CC[C@]3(C)C(=CC(=O)[C@@H]4[C@@]5(C)C=C(C#N)C(=O)C(C)(C)[C@@H]5CC[C@]43C)[C@@H]2C1` [β-CDODA-Me, methyl-2-cyano-3,11-dioxo-18β-olean-1,12-dien-30-oate], the proliferation ([3]; 0.5-5 μM, 4 days) is reported as “decreased proliferation”, the “proliferation and apoptosis responses after cotreatment with T007” value ([3]; T007 10 μM) is reported as “not affected” and the apoptosis (RKO and SW480 cells [4]; RKO and SW480 cells) is reported as “induced apoptosis”. The “caspase-dependent PARP cleavage” value (RKO and SW480 cells [4]; colon cancer cells (β-CDODA-Me: RKO; ZBTB10: SW480 and RKO)) was “induced”, the “Sp1, Sp3 and Sp4 mRNA levels” value ([5]; 24 hr, semi-quantitative RT-PCR) was “decreased expression” and the “expression of Sp-dependent proteins survivin, VEGFR1 (Flt-1) and VEGF” value ([5]; Western blot) was “decreased expression”. The “luciferase activity, Sp1 promoter constructs (pSp1For4, pSp1For2, pSp1For1)” value (Sp1 gene promoter) was “decreased luciferase activity”, the “luciferase activity, Sp3 promoter constructs (pSp3For5, pSp3For2)” value (Sp3 gene promoter) was “decreased luciferase activity” and the miR-27a (miR-27a [6]) was “decreased”. For the same compound, the ZBTB10 levels (ZBTB10) was “induced”, the cell cycle arrest (RKO and SW480 cells [7]) was “induced a G2/M arrest” and the “percentage of cells in S phase” value (RKO and SW480 cells [7]; 24 hr, 2.5 and 5.0 μM respectively) was “increased and then decreased”. The “cells in G2/M” value (RKO and SW480 cells [7]; 24 hr, 2.5 and 5.0 μM, vs DMSO) was “increase”, the “percentage of cells in G0/G1” value (RKO and SW480 cells [7]; 24 hr, 2.5 and 5.0 μM, vs DMSO) was “concentration-dependent decrease” and the cdc2 phosphorylation (Myt-1, Wee-1 and cdc2; RKO and SW480 cells, Western blot) was “time-dependent induction”. The “Myt-1 mRNA expression” value (Myt-1, Wee-1 and cdc2; RKO and SW480 cells, real time PCR) was “induced”, the Wee-1 expression (Myt-1, Wee-1 and cdc2; SW480 or RKO cells) was “did not affect” and the “body or organ weight loss associated with toxic side effects” value (RKO cells as xenografts; 15 mg/kg/d) was “not accompanied by any body or organ weight loss”. For the same compound, the “miR-27a expression in tumors” value (RKO cells as xenografts; [8]) was “inhibited”, the “tumor growth (volume)” value (RKO cells as xenografts; [8]) was “inhibited” and the tumor weight (RKO cells as xenografts; [8]) was “inhibited”. The “levels of miR-27a RNA” value (miR-27a [1]) was “decrease”.
